How the values were obtained:
Oryza sativa [1] = test: Effect on germination of healthy Oryza sativa (rice) seed cultivar Liangyou 6326 at 6.25 to 25 ug/ml at 25 degC after 72 hr; format: ADME, organism-based; details: in vivo
Fusarium verticillioides [2] = test: Fungicidal activity against Fusarium verticilliodes isolate JS07 in rice seeds harvested from bakane diseased plants assessed as number of seedlings abnormally elongated or exhibiting symptoms of damping-off at 6.25 ug/ml at 30 degC incubated for 72 hr measured after 3 days under greenhouse trials (reference value: 33.8%); format: functional
Fusarium verticillioides [3] = test: Fungicidal activity against Fusarium verticilliodes isolate YZ01 in rice seeds harvested from bakane diseased plants assessed as number of seedlings abnormally elongated or exhibiting symptoms of damping-off at 25 ug/ml at 30 degC incubated for 72 hr measured after 3 days under greenhouse trials (reference value: 33.6%); format: functional
Fusarium verticillioides [4] = test: Fungicidal activity against Fusarium verticilliodes isolate N03 in rice seeds harvested from bakane diseased plants assessed as number of seedlings abnormally elongated or exhibiting symptoms of damping-off at 8.33 ug/ml at 30 degC incubated for 72 hr measured after 3 days under greenhouse trials (reference value: 36.1%); format: functional
Fusarium verticillioides [5] = test: Fungicidal activity against Fusarium verticilliodes isolate YZ08 in rice seeds harvested from bakane diseased plants assessed as number of seedlings abnormally elongated or exhibiting symptoms of damping-off at 12.5 ug/ml at 30 degC incubated for 72 hr measured after 3 days under greenhouse trials (reference value: 19.8%); format: functional
Fusarium verticillioides [6] = test: Fungicidal activity against Fusarium verticilliodes isolate JS01 in rice seeds harvested from bakane diseased plants assessed as number of seedlings abnormally elongated or exhibiting symptoms of damping-off at 6.25 ug/ml at 30 degC incubated for 72 hr measured after 3 days under greenhouse trials (reference value: 32.5%); format: functional
Fusarium verticillioides [7] = test: Fungicidal activity against Fusarium verticilliodes isolate YZ06 in rice seeds harvested from bakane diseased plants assessed as number of seedlings abnormally elongated or exhibiting symptoms of damping-off at 25 ug/ml at 30 degC incubated for 72 hr measured after 3 days under greenhouse trials (reference value: 45.3%); format: functional
Fusarium verticillioides [8] = test: Fungicidal activity against Fusarium verticilliodes isolate JS04 in rice seeds harvested from bakane diseased plants assessed as number of seedlings abnormally elongated or exhibiting symptoms of damping-off at 12.5 ug/ml at 30 degC incubated for 72 hr measured after 3 days under greenhouse trials (reference value: 16.2%); format: functional
Fusarium verticillioides [9] = test: Fungicidal activity against Fusarium verticilliodes isolate YZ03 in rice seeds harvested from bakane diseased plants assessed as number of seedlings abnormally elongated or exhibiting symptoms of damping-off at 6.25 ug/ml at 30 degC incubated for 72 hr measured after 3 days under greenhouse trials (reference value: 21.3%); format: functional
Fusarium verticillioides [10] = test: Fungicidal activity against Fusarium verticilliodes isolate N03 in rice seeds harvested from bakane diseased plants assessed as number of seedlings abnormally elongated or exhibiting symptoms of damping-off at 25 ug/ml at 30 degC incubated for 72 hr measured after 3 days under greenhouse trials (reference value: 36.1%); format: functional
Fusarium verticillioides [11] = test: Fungicidal activity against Fusarium verticilliodes isolate N03 in rice seeds harvested from bakane diseased plants assessed as number of seedlings abnormally elongated or exhibiting symptoms of damping-off at 6.25 ug/ml at 30 degC incubated for 72 hr measured after 3 days under greenhouse trials (reference value: 36.1%); format: functional
Fusarium verticillioides [12] = test: Fungicidal activity against Fusarium verticilliodes isolate YZ26 in rice seeds harvested from bakane diseased plants assessed as number of seedlings abnormally elongated or exhibiting symptoms of damping-off at 12.5 ug/ml at 30 degC incubated for 72 hr measured after 3 days under greenhouse trials (reference value: 49.3%); format: functional
Oryza sativa [13] = test: Effect on emergence of healthy Oryza sativa (rice) seedlings measured after seeds germinated; format: ADME, organism-based; details: in vivo
Fusarium verticillioides [14] = test: Fungicidal activity against Fusarium verticilliodes isolate YZ11 in rice seeds harvested from bakane diseased plants assessed as number of seedlings abnormally elongated or exhibiting symptoms of damping-off at 6.25 ug/ml at 30 degC incubated for 72 hr measured after 3 days under greenhouse trials (reference value: 33.7%); format: functional
Oryza sativa [15] = test: Effect on germination of healthy Oryza sativa (rice) seed cultivar Xinliangyou 6 at 6.25 to 25 ug/ml at 25 degC after 72 hr; format: ADME, organism-based; details: in vivo
Fusarium verticillioides [16] = test: Fungicidal activity against Fusarium verticilliodes isolate YZ04 in rice seeds harvested from bakane diseased plants assessed as number of seedlings abnormally elongated or exhibiting symptoms of damping-off at 6.25 ug/ml at 30 degC incubated for 72 hr measured after 3 days under greenhouse trials (reference value: 44.2%); format: functional
Fusarium verticillioides [17] = test: Fungicidal activity against Fusarium verticilliodes isolate N05 in rice seeds harvested from bakane diseased plants assessed as number of seedlings abnormally elongated or exhibiting symptoms of damping-off at 6.25 ug/ml at 30 degC incubated for 72 hr measured after 3 days under greenhouse trials (reference value: 6.2%); format: functional
Fusarium verticillioides [18] = test: Fungicidal activity against Fusarium verticilliodes isolate JS08 in rice seeds harvested from bakane diseased plants assessed as number of seedlings abnormally elongated or exhibiting symptoms of damping-off at 8.33 ug/ml at 30 degC incubated for 72 hr measured after 3 days under greenhouse trials (reference value: 13.0%); format: functional
Fusarium verticillioides [19] = test: Fungicidal activity against Fusarium verticilliodes isolate YZ11 in rice seeds harvested from bakane diseased plants assessed as number of seedlings abnormally elongated or exhibiting symptoms of damping-off at 12.5 ug/ml at 30 degC incubated for 72 hr measured after 3 days under greenhouse trials (reference value: 33.7%); format: functional
Fusarium verticillioides [20] = test: Fungicidal activity against Fusarium verticilliodes isolate YZ22 in rice seeds harvested from bakane diseased plants assessed as number of seedlings abnormally elongated or exhibiting symptoms of damping-off at 8.33 ug/ml at 30 degC incubated for 72 hr measured after 3 days under greenhouse trials (reference value: 22.5%); format: functional
Fusarium verticillioides [21] = test: Fungicidal activity against Fusarium verticilliodes isolate YZ13 in rice seeds harvested from bakane diseased plants assessed as number of seedlings abnormally elongated or exhibiting symptoms of damping-off at 6.25 ug/ml at 30 degC incubated for 72 hr measured after 3 days under greenhouse trials (reference value: 26.8%); format: functional
Fusarium verticillioides [22] = test: Fungicidal activity against Fusarium verticilliodes isolate YZ05 in rice seeds harvested from bakane diseased plants assessed as number of seedlings abnormally elongated or exhibiting symptoms of damping-off at 6.25 ug/ml at 30 degC incubated for 72 hr measured after 3 days under greenhouse trials (reference value: 33.3%); format: functional
Fusarium verticillioides [23] = test: Fungicidal activity against Fusarium verticilliodes isolate YZ01 in rice seeds harvested from bakane diseased plants assessed as number of seedlings abnormally elongated or exhibiting symptoms of damping-off at 12.5 ug/ml at 30 degC incubated for 72 hr measured after 3 days under greenhouse trials (reference value: 33.6%); format: functional
Fusarium verticillioides [24] = test: Fungicidal activity against Fusarium verticilliodes isolate N05 in rice seeds harvested from bakane diseased plants assessed as number of seedlings abnormally elongated or exhibiting symptoms of damping-off at 8.33 ug/ml at 30 degC incubated for 72 hr measured after 3 days under greenhouse trials (reference value: 6.2%); format: functional
Fusarium verticillioides [25] = test: Fungicidal activity against Fusarium verticilliodes isolate JS06 in rice seeds harvested from bakane diseased plants assessed as number of seedlings abnormally elongated or exhibiting symptoms of damping-off at 12.5 ug/ml at 30 degC incubated for 72 hr measured after 3 days under greenhouse trials (reference value: 25.2%); format: functional

## CCOC(=O)/C(C#N)=C(/N)c1ccccc1
Oryza sativa [1]
  Activity: Non-toxic
Fusarium verticillioides [2]
  Activity: 1.3%
Fusarium verticillioides [3]
  Activity: 0%
Fusarium verticillioides [4]
  Activity: 0%
Fusarium verticillioides [5]
  Activity: 0%
Fusarium verticillioides [6]
  Activity: 1.6%
Fusarium verticillioides [7]
  Activity: 0%
Fusarium verticillioides [8]
  Activity: 0%
Fusarium verticillioides [9]
  Activity: 2%
Fusarium verticillioides [10]
  Activity: 0%
Fusarium verticillioides [11]
  Activity: 0.5%
Fusarium verticillioides [12]
  Activity: 0%
Oryza sativa [13]
  Activity: Non-toxic
Fusarium verticillioides [14]
  Activity: 4.5%
Oryza sativa [15]
  Activity: Non-toxic
Fusarium verticillioides [16]
  Activity: 1.3%
Fusarium verticillioides [17]
  Activity: 0.4%
Fusarium verticillioides [18]
  Activity: 0%
Fusarium verticillioides [19]
  Activity: 0%
Fusarium verticillioides [20]
  Activity: 0.5%
Fusarium verticillioides [21]
  Activity: 0.8%
Fusarium verticillioides [22]
  Activity: 0.5%
Fusarium verticillioides [23]
  Activity: 0%
Fusarium verticillioides [24]
  Activity: 0%
Fusarium verticillioides [25]
  Activity: 0%
